Test results published in patent publication US11866431B2, “Bicyclic compounds” (Vivace Therapeutics, Inc., priority 2018, dated 2024).

Test system: 8XTBD luciferase reporter (YAP reporter) in HEK293T cells
Assay: YAP Reporter Assay
Assay type: cell-based
Conditions: Homo sapiens, HEK-293T, 24 h, read-out: Firefly Luciferase IC50 (μM)
Description: HEK293T cells stably transfected with 8XTBD luciferase reporter and pRLTK in 384-well plates were treated with the test compounds, starting from 3 μM (final concentration in assay plate), 1:3 dilution, and 10 points in quadruplicates. Post 24-hr incubation with compounds at 37° C. and 5% CO2, cells were lysed and 8XTBD-driven firefly luciferase and control TK-driven renilla luciferase activities were measured using Promega Dual-Luciferase Reporter Assay System.
Reagents: The reagents used for this study are: DMEM: Invitrogen #11960077, Dual-Glo Luciferase Assay System: Promega-E2980, Puromycin Dihydrochloride: Invitrogen-A1113803, 384-well plate: PerkinElmer-6007480, L-GLUTAMINE: Invitrogen-25030164, Hygromycin B: Invitrogen-10687010, and Penicillin-Streptomycin: Merk-TMS-AB2-C
Media: The media used for this assay were: Culture Medium: DMEM+1 ug/mL puromycin+200 ug/mL hygromycin (with 10% FBS+1 mM L-glutamine); and Assay Medium: DMEM (with 10% FBS+1 mM L-glutamine+1×P/S).
Cell Plating: The appropriate media was warmed at 37° C. by water bath: Culture Medium, Assay Medium, 1*D-PBS, 0.05% trypsin-EDTA. The cells were trypsinized after removing all media, then washed with 1*sterile D-PBS and then with 2 ml 0.05% trypsin-EDTA. The cells were then incubated at RT for one minute. Then 10 ml/75 cm2 flask Assay Medium was added to each flask. Using a 10 ml pipette, the cells were then gently resuspended in the media, until the clumps completely disappeared. The cells were then transferred into 50 ml centrifuge tubes and were centrifuged at 800 rpm for 5 mins. The medium was removed and the cells were resuspended with Assay Medium. An aliquot of cells was used to count the cell density (cells/ml). The cell suspension was then diluted with Assay Medium to a concentration of 6×10^4 cells/ml. 50 ul cells suspension was then plated to 384-well plate (PerkinElmer-6007480), 3×10^3 cells/well and the cells were incubated in an incubator at 37° C. 5% CO2.
Compound Treatment: In the afternoon (incubation of the plate with 3-4 hrs), the test compounds were added by Echo, starting from 3 uM (final concentration in the assay plate), 1:3 dilution, 10 points, quadruplicates. The plate was placed at 37° C. 5% CO2 incubator for 24 hrs.
Detection: The Dual-Glo Luciferase Reagent was prepared by transferring the contents of one bottle of Dual-Glo Luciferase Buffer to one bottle of Dual-Glo Luciferase Substrate to create the Dual-Glo Luciferase Reagent. Mixing was performed by inversion until the substrate was thoroughly dissolved. After mixing, the reagent was aliquoted into 15 ml tubes. In the afternoon (24 hrs post compound treatment), the DMEM+ medium in the 384 well plates were aspirated by Microplate Washer.
Measuring firefly luciferase activity: 20 ul Dual-Glo Luciferase Reagent was added to the 384-well plates. The plates were protected from light to prevent interference with the assay. The plates were shaken for 1 min followed centrifuging plates at 1000 rpm for 30 seconds. After waiting at least 10 minutes, the firefly luminescence was measured by Envision.
Measuring renilla luciferase activity: 20 ul Stop-Glo Reagent was added to the 384-well plates. The plates were shaken for 1 min and then centrifuged at 1000 rpm for 30 seconds. After waiting at least 10 minutes, the renilla luminescence was measured by Envision.
Compound IC50 and maximum inhibition on the firefly luciferase and renilla luciferase activities were reported separately.

`O=C(NCC(F)(F)F)c1ccc2c(-c3ccc(C(F)(F)F)cc3)cccc2c1` [Compound 54, N-(2,2,2-trifluoroethyl)-5-(4-(trifluoromethyl)phenyl)-2-naphthamide] and `CC(C)NC(=O)c1cnc2c(-c3ccc(C(F)(F)F)cc3)cc(F)c(F)c2c1` [Compound 72, 5,6-Difluoro-N-isopropyl-8-(4-(trifluoromethyl)phenyl)quinoline-3-carboxamide] cannot be ordered by IC50: under 0.1 µM for the first, under 0.1 µM for the second.

Same assay, conditions: Homo sapiens, HEK-293T; HEK293T cells stably transfected with 8XTBD luciferase reporter and pRLTK; 24-hr incubation; top concentration 3 μM; read-out: Firefly Luciferase IC50

First: Cc1ccc(-c2ccc(C(F)(F)F)cc2)c2ccc(C(=O)NC(C)C)cc12 [Compound 19, N-isopropyl-8-methyl-5-[4-(trifluoromethyl)phenyl]naphthalene-2-carboxamide]
Second: CC(C)NC(=O)c1ccc2c(-c3ccc(C(F)(F)F)cc3)ccc(N(C)S(C)(=O)=O)c2c1 [Compound 34, N-isopropyl-8-(N-methylmethylsulfonamido)-5-(4-(trifluoromethyl)phenyl)-2-naphthamide]
The IC50 of the first is lower: under 0.1 µM for the first, 1 to 3 µM for the second.

`O=C(O)c1cnc2c(-c3ccc(C(F)(F)F)cc3)cccc2n1` [Compound 334, 5-(4-(trifluoromethyl)phenyl)quinoxaline-2-carboxylic Acid] and `O=C(O)c1ccc2c(-c3ccc(C(F)(F)F)cc3)cccc2n1` [Compound 333, 5-(4-(trifluoromethyl)phenyl)quinoline-2-carboxylic Acid] fall in the same range of IC50: 0.1 to 1 µM for the first, 0.1 to 1 µM for the second.

`C[C@@H](NC(=O)c1ccc2c(-c3ccc(C(F)(F)F)cc3)cccc2c1)C1CCC1` [Compound 252, (R)—N-(1-cyclobutylethyl)-5-(4-(trifluoromethyl)phenyl)-2-naphthamide] and `C[C@@H](NC(=O)c1ccc2c(-c3ccc(C(F)(F)F)cc3)cccc2c1)C1COC1` [Compound 270, (R)—N-(1-(oxetan-3-yl)ethyl)-5-(4-(trifluoromethyl)phenyl)-2-naphthamide] fall in the same range of IC50: 0.1 to 1 µM for the first, 0.1 to 1 µM for the second.

`CC(C)(C)NC(=O)c1ccc2c(-c3ccc(C(F)(F)F)cc3)cccc2c1` [Compound 264, N-(tert-butyl)-5-(4-(trifluoromethyl)phenyl)-2-naphthamide] and `C[C@@H](CN)NC(=O)c1ccc2c(-c3ccc(C(F)(F)F)cc3)cccc2c1` [Compound 59, (S)—N-(1-aminopropan-2-yl)-5-(4-(trifluoromethyl)phenyl)-2-naphthamide] fall in the same range of IC50: 0.1 to 1 µM for the first, 0.1 to 1 µM for the second.

`CCNCC[C@@H](C)NC(=O)c1cnc2c(-c3ccc(C(F)(F)F)cc3)cccc2c1` [Compound 316, N-[(1R)-3-(ethylamino)-1-methyl-propyl]-8-[4-(trifluoromethyl)phenyl]quinoline-3-carboxamide] and `C[C@@H](NC(=O)c1cnc2c(-c3ccc(C(F)(F)F)cc3)cccc2c1)C1CNC1` [Compound 158, N-[(1R)-1-(Azetidin-3-yl)ethyl]-8-[4-(trifluoromethyl)phenyl]quinoline-3-carboxamide] fall in the same range of IC50: 0.1 to 1 µM for the first, 0.1 to 1 µM for the second.

First: N#CC(O)CCCCNC(=O)c1ccc2c(-c3ccc(C(F)(F)F)cc3)cccc2c1 (centres unmarked) [Compound 231, N-(5-cyano-5-hydroxy-pentyl)-5-[4-(trifluoromethyl)phenyl]naphthalene-2-carboxamide]
Second: N#C/C=C\CCCNC(=O)c1ccc2c(-c3ccc(C(F)(F)F)cc3)cccc2c1 [Compound 228, N—[(Z)-5-cyanopent-4-enyl]-5-[4-(trifluoromethyl)phenyl]naphthalene-2-carboxamide]
The IC50 of the first is higher: 0.1 to 1 µM for the first, under 0.1 µM for the second. The second is the more potent here.

Compared with `COC(=O)c1ccc2c(-c3ccc(C(F)(F)F)cc3)cn(C)c(=O)c2c1` [Compound 15, Methyl 2-methyl-1-oxo-4-[4-(trifluoromethyl)phenyl]isoquinoline-7-carboxylate], `CC(C)NC(=O)c1ccc2c(-c3ccc(C(F)(F)F)cc3)cc(Br)c(N)c2c1` [Compound 31, 8-amino-7-bromo-N-isopropyl-5-(4-(trifluoromethyl)phenyl)-2-naphthamide] is lower in IC50: 0.1 to 1 µM for the first, under 0.1 µM for the second.

`O=C(NCc1ccncc1)c1ccc2c(-c3ccc(C(F)(F)F)cc3)cccc2c1` [Compound 229, N-(pyridin-4-ylmethyl)-5-(4-(trifluoromethyl)phenyl)-2-naphthamide] and `O=C(NCc1ccnc(CF)n1)c1ccc2c(-c3ccc(C(F)(F)F)cc3)cccc2c1` [Compound 170, N-((2-(fluoromethyl)pyrimidin-4-yl)methyl)-5-(4-(trifluoromethyl)phenyl)-2-naphthamide] cannot be ordered by IC50: under 0.1 µM for the first, under 0.1 µM for the second.

`CCOc1cc(-c2ccc(C(F)(F)F)cc2)c2ncc(C(=O)O)cc2c1` [Compound 327, 6-ethoxy-8-(4-(trifluoromethyl)phenyl)quinoline-3-carboxylic Acid] and `COc1cc(-c2ccc(C(F)(F)F)cc2)c2ncc(C(=O)O)cc2c1` [Compound 325, 6-methoxy-8-(4-(trifluoromethyl)phenyl)quinoline-3-carboxylic acid] cannot be ordered by IC50: under 0.1 µM for the first, under 0.1 µM for the second.

`[N-]=[N+]=NCCCNC(=O)c1ccc2c(-c3ccc(C(F)(F)F)cc3)cccc2c1` [Compound 256, N-(3-azidopropyl)-5-(4-(trifluoromethyl)phenyl)-2-naphthamide] and `CNCCCNC(=O)c1ccc2c(-c3ccc(C(F)(F)F)cc3)cccc2c1` [Compound 126, N-(3-(methylamino)propyl)-5-(4-(trifluoromethyl)phenyl)-2-naphthamide] fall in the same range of IC50: 0.1 to 1 µM for the first, 0.1 to 1 µM for the second.

`O=C(N[C@@H](CCO)c1ccccn1)c1ccc2c(-c3ccc(C(F)(F)F)cc3)cccc2c1` [Compound 164, (S)—N-(3-hydroxy-1-(pyridin-2-yl)propyl)-5-(4-(trifluoromethyl)phenyl)-2-naphthamide] and `O=C(NC(CCO)c1ccccn1)c1ccc2c(-c3ccc(C(F)(F)F)cc3)cccc2c1` (centres unmarked) [Compound 188, N-[3-hydroxy-1-(2-pyridyl)propyl]-5-[4-(trifluoromethyl)phenyl]naphthalene-2-carboxamide] cannot be ordered by IC50: under 0.1 µM for the first, under 0.1 µM for the second.

First: C[C@H](NC(=O)c1ccc2c(-c3ccc(C(F)(F)F)cc3)cccc2c1)c1cc(N(C)C)ccn1 [Compound 224, (S)—N-(1-(4-(dimethylamino)pyridin-2-yl)ethyl)-5-(4-(trifluoromethyl)phenyl)-2-naphthamide]
Second: CC(NC(=O)c1ccc2c(-c3ccc(C(F)(F)F)cc3)cccc2c1)c1cc(Br)ccn1 (centres unmarked) [Compound 225, N-(1-(4-bromopyridin-2-yl)ethyl)-5-(4-(trifluoromethyl)phenyl)-2-naphthamide]
The IC50 of the first is higher: 1 to 3 µM for the first, under 0.1 µM for the second.

First: CC(C)NC(=O)c1ccc2c(-c3ccc(C(F)(F)F)cc3)cc(Br)cc2c1 [Compound 32, 7-bromo-N-isopropyl-5-[4-(trifluoromethyl)phenyl]naphthalene-2-carboxamide]
Second: CC(C)NC(=O)c1ccc2c(-c3ccc(C(F)(F)F)cc3)ccc(NC(=O)OC(C)(C)C)c2c1 [Compound 12, Tert-Butyl (7-(isopropylcarbamoyl)-4-(4-(trifluoromethyl)phenyl)naphthalen-1-yl)carbamate]
The IC50 of the first is lower: under 0.1 µM for the first, 0.1 to 1 µM for the second.

`O=C(O)c1ccc2c(-c3ccc(C(F)(F)F)cc3)cccc2c1O` [Compound 335, 1-hydroxy-5-(4-(trifluoromethyl)phenyl)-2-naphthoic Acid] and `Cc1nsc(CNC(=O)c2ccc3c(-c4ccc(C(F)(F)F)cc4)cccc3c2)n1` [Compound 221, N-((3-methyl-1,2,4-thiadiazol-5-yl)methyl)-5-(4-(trifluoromethyl)phenyl)-2-naphthamide] cannot be ordered by IC50: under 0.1 µM for the first, under 0.1 µM for the second.

First: COCCC(=O)Nc1cccc(CNC(=O)c2ccc3c(-c4ccc(C(F)(F)F)cc4)cccc3c2)c1 [Compound 234, N-(3-(3-methoxypropanamido)benzyl)-5-(4-(trifluoromethyl)phenyl)-2-naphthamide]
Second: CC(C)(NC(=O)c1ccc2c(-c3ccc(C(F)(F)F)cc3)cccc2c1)c1ccccn1 [Compound 262, N-(2-(pyridin-2-yl)propan-2-yl)-5-(4-(trifluoromethyl)phenyl)-2-naphthamide]
The IC50 of the first is lower: under 0.1 µM for the first, 0.1 to 1 µM for the second. The first is the more potent here.
